Measured values taken from patent US7025067B2, “Activated charcoal filter for effectively reducing p-benzosemiquinone from the mainstream cigarette smoke” (Council of Scientific and Industrial Research, priority 2001, dated 2006).
Read-outs that look alike come from different tables or passages of the source.

With p-benzosemiquinone [p-BSQ] the “half-life of p-BSQ” value (aqueous solution at pH 7.4) was “about 1.5 hours” and the “half-life of p-BSQ” value (solid state at the room temperature) was 48 h.
